Results as given in US4562275A, “Antitumor platinum complexes” (priority 1984, dated 1985).
“And” between values parts separate entries of the source, which are not always exact repeats. Equal entries are not always repeated.

Key:
L1210 leukemia = test: Antitumor activity vs transplantable L1210 leukemia (ip) in mice; assay type: in vivo, mouse; conditions: for Max % T/C: dying mice only; for OD (optimum dose): optimum dose from the L1210 test
Source text: The antitumor activities of the complexes provided by the present invention have been determined against L-1210 leukemia in the mouse and, for certain of the complexes, against other mouse tumor systems.
(§1) Results of antitumor testing against the transplantable mouse tumors L1210 leukemia, cisplatin-resistant L1210 leukemia, B16 melanoma, Madison 109 lung carcinoma and colon 26 carcinoma are shown below in Tables 1 and 2.
In Table 1 are shown the maximum % T/C values obtained for each platinum compound versus L1210 leukemia using both single and qd 1→5 dosing.
(§2) The methods used to evaluate the platinum complexes for antitumor activity and toxicity in animals are summarized below. These methods have been published elsewhere in more detail (Rose, et al. Cancer Treat. Rep. 66: 135, 1982; Florczyk, et al, Cancer Treat. Rep. 66: 187, 1982).
(§3) The parent line of L1210 leukemia (L1210) was maintained in DBA/2 mice by ip transplantation of 10^5 cells at weekly intervals. […] B16 malenoma (B16) was maintained by sc transplant in C57BL/6 mice every two weeks. Madison 109 lung carcinoma (M109) and colon 26 carcinoma (C26) were maintained by sc transplant in BALB/c mice every two weeks.
(§4) The level and route of tumor inoculum, host, group size, and drug treatment schedule and route for each tumor type are summarized below in Table 6. Each complex was evaluated initially against L1210 at 4 dose levels per schedule selected on the basis of lethality data provided by the Wadley Institute. In subsequent experiments with the other tumors the complexes were evaluated at a minimum of 3 dose levels selected on the basis of maximum tolerated levels in the L1210 experiments. Cisplatin-treated groups and a saline-treated (or untreated) tumor control group were included in each experiment.
(§5) The L1210 experiments were terminated on Day 30 whereas the B16, C26 and M109 experiments were terminated on Day 60 (some C26 experiments were terminated on Day 75). Mice alive at the termination day were autopsied and considered cured if no tumor was visible. […] A complex was considered active if it produced a % T/C value ≥125.

BDF1 mice [1] = test: Nephrotoxicity: effect on blood urea nitrogen (BUN) in BDF1 mice; conditions: for BUN↑, Mouse: effect relative to cisplatin
Protocol: The other compounds were in such short supply that they were tested for effects on BUN values using the optimum dose (O.D.) from the L1210 test for dose selection.
The toxicity studies were done in male BDF1 mice (25-29 gm) and castrated male Fitch ferrets (1-1.5 kg).
The complexes that were active against L1210 were evaluated for nephrotoxicity by determining their effects on blood urea nitrogen (BUN) levels in mice. Groups of 40-50 mice/experiment were bled from the retro-orbital plexus and individual BUN values determined by a modified urease method using a Centrifichem System 400. The test complex, or saline for controls, was given at several dose levels (5-10 mice/dose) in single ip injections. The highest dose of the complex usually corresponded to its LD50 value or 1.5 times its optimal single dose in the L1210 experiment. At least two lower doses were included to evaluate dose-related effects. The BUN values were measured 4 and 7 days after dosing. BUN values ≥30 mg% were considered indicative of drug-induced nephrotoxicity.

M109 carcinoma = test: Antitumor activity vs ip M109 (Madison 109 lung) carcinoma in mice; assay type: in vivo, mouse; set-up: O.D.: unit not given here; conditions: for O.D.: ip M109 (2×; 4×); for Max. % T/C: ip M109 (2×; 4×): q3d × 2 or qd 1-4, ip, dying mice only
Source text: as §1, §2, §3, §4, §5
8 q3d^a × 2 or qd 1-4, ip

[2] = tested on: L1210/CDDP (cisplatin resistant line of L1210 leukemia); test: Antitumor activity vs cisplatin-resistant L1210 leukemia (L1210/CDDP) in mice; assay type: in vivo, mouse
Source text: Results of antitumor testing against the transplantable mouse tumors L1210 leukemia, cisplatin-resistant L1210 leukemia, B16 melanoma, Madison 109 lung carcinoma and colon 26 carcinoma are shown below in Tables 1 and 2. […]
as §2, §3, §4, §5

B16 melanoma = test: Antitumor activity vs ip B16 melanoma in mice; assay type: in vivo, mouse; set-up: O.D.: unit not given here; conditions: for O.D.: ip B16 (3×; 9×); for Max. % T/C: ip B16 (3×; 9×): q4d × 3 or qd 1-9, ip, dying mice only
Source text: as §2, §3
The level and route of tumor inoculum, host, group size, and drug treatment schedule and route for each tumor type are summarized below in Table 6. Each complex was evaluated initially against L1210 at 4 dose levels per schedule selected on the basis of lethality data provided by the Wadley Institute.
as §5

BDF1 mice [3] = test: Deaths (D.14) in the BUN test in BDF1 mice; assay type: in vivo, mouse
C26 carcinoma = test: Antitumor activity vs ip C26 (colon 26) carcinoma in mice; assay type: in vivo, mouse; set-up: O.D.: unit not given here; conditions: for O.D.: ip C26 (2×; 4×); for Max. % T/C: ip C26 (2×; 4×): q3d × 2 or qd 1-4, ip, dying mice only
Source text: as §1, §2, §3, §4, §5
8 q3d^b × 2 or qd 1-4, ip

ferret = test: Emetic effects (and lethality) in the ferret; assay type: in vivo, castrated male Fitch ferrets; conditions: for No. With Emesis/No. tested: 6 h observation
Protocol: Selected complexes were evaluated for emetic effects in ferrets. […] The time to the first emetic episode (retching and expulsion of vomitus) and the number of episodes were recorded. […] Subsequent test doses were selected based on the emetic response and lethality of the initial dose.

BDF1 mice [4] = test: Single-dose ip LD50 in BDF1 mice; assay type: in vivo, mouse; conditions: 30 days observation
Protocol: Single-dose ip LD50 values were determined in BDF1 mice for the indicated complexes.

[5] = Solubility stated in the preparation examples
[6] = L1210, single dose Day 1, ip, (a), (b) determinations
[7] = L1210, single dose Day 1, ip, dose giving the Max % T/C, same order
[8] = L1210, Day 1, in intralipid plus ethanol
[9] = Day 1, in intralipid plus ethanol

Row | SMILES | O.D. (optimal dose) (L1210 leukemia; L1210, QD 1 → 5, ip) [mg/kg/inj] | Max % T/C (L1210 leukemia; L1210, QD 1 → 5, ip) [%] | Max % T/C (L1210 leukemia; [6]) | O.D. (optimal dose) (L1210 leukemia; [7]) | OD (optimum dose) (L1210 leukemia) [mg/kg/ip] | BUN↑, Mouse (BDF1 mice [1]) | O.D. (M109 carcinoma) | Max. % T/C (M109 carcinoma) [%] | O.D. (optimal dose) ([2]; Day 1) [mg/kg/inj] | Max % T/C ([2]; Day 1, dying mice only) [%] | O.D. (B16 melanoma) | Max. % T/C (B16 melanoma) [%] | O.D. (C26 carcinoma) | Max. % T/C (C26 carcinoma) [%] | LD50 (BDF1 mice [4]) [mg/kg/ip] | Cures/total ([2]; Day 1) | Incidence of BUN > 30 mg % (BDF1 mice [1]; 30 mg/kg ip) | Deaths D.14 (BDF1 mice [3]; 30 mg/kg ip) | also measured
1 | Cc1cn(C2CC(O)C(COP(=O)([O-])[O-])O2)c(=O)[nH]c1=O.NC1CCCCC1N.[Pt+2] (stereo not drawn) [Example 6, thymidylato trans(-)-1,2-diaminocyclohexane platinum(II)] | 10 | 221 | 200% and 207% | 40 mg/kg/inj and 45 mg/kg/inj | 40 | 0 | 12 | 95 | 20 | 175 | 6 | 177 | 36 | 109 |  |  |  |  | Incidence of BUN > 30 mg % (BDF1 mice [1]; 40 mg/kg ip): 0/5; Incidence of BUN > 30 mg % (BDF1 mice [1]; 60 mg/kg ip): 0/5; Deaths D.14 (BDF1 mice [3]; 40 mg/kg ip): 0/5; Deaths D.14 (BDF1 mice [3]; 60 mg/kg ip): 0/5; Emesis Episodes (ferret; 32 mg/kg iv): 13.5; Emesis onset in responding animals (ferret; 32 mg/kg iv): 17.5 min; No. With Emesis/No. tested (ferret; 32 mg/kg iv (lethal dose)): 2/2; Lethal dose (ferret; ferret, doses marked * = Lethal dose): 32 mg/kg iv
2 | CCCCB([O-])[O-].N[C@@H]1CCCC[C@H]1N.[Pt+2] (relative stereo) [Example 7, n-butylboronato trans(-)-1,2-diaminocyclohexane platinum(II)] | 1 |  | 179% | 3 mg/kg/inj | 3.6 | 0 |  |  |  |  | 1.2 | 120 |  |  | 11.3 |  |  |  | O.D. (optimal dose) (L1210 leukemia; [8]): 6 mg/kg/inj; Max % T/C (L1210 leukemia; [8]): 236% and 217%; Incidence of BUN > 30 mg % (BDF1 mice [1]; 6.4 mg/kg ip): 0/10; Incidence of BUN > 30 mg % (BDF1 mice [1]; 8.5 mg/kg ip): 0/10; Incidence of BUN > 30 mg % (BDF1 mice [1]; 11.3 mg/kg ip): 0/10; Cures/total [2, 9]: 5/6; O.D. (optimal dose) [2, 9]: 8 mg/kg/inj; Max % T/C ([2]; Day 1, in intralipid plus ethanol, dying mice only): 427%; Deaths D.14 (BDF1 mice [3]; 6.4 mg/kg ip): 0/10; Deaths D.14 (BDF1 mice [3]; 8.5 mg/kg ip): 0/10; Deaths D.14 (BDF1 mice [3]; 11.3 mg/kg ip): 0/10
3 | NCC1(N)CCCCCCC1.[O-]B([O-])O.[Pt+2] [Example 13, borato 1-aminomethylcyclooctylamine platinum(II)] | 4 | 207 | 229% and 207% | 16 mg/kg/inj | 16 | 0 | 3 | 81 | 8 | 256 | 2 | 167 | 8 | 88 |  | 2/6 |  |  | Incidence of BUN > 30 mg % (BDF1 mice [1]; 16 mg/kg ip): 0/5; Incidence of BUN > 30 mg % (BDF1 mice [1]; 24 mg/kg ip): 0/5; Ratio of Max. % T/C Complex/cDDP (M109 carcinoma; ip M109, relative to concomitant cisplatin): .52; Ratio of Max. % T/C Complex/cDDP (B16 melanoma; ip B16, relative to concomitant cisplatin): .90; Deaths D.14 (BDF1 mice [3]; 16 mg/kg ip): 0/5; Deaths D.14 (BDF1 mice [3]; 24 mg/kg ip): 0/5; Solubility in methanol ([5]; methanol): soluble; Solubility in water ([5]; water): soluble; Ratio of Max. % T/C Complex/cDDP (C26 carcinoma; ip C26, relative to concomitant cisplatin): .61
4 | N[C@@H]1CCCC[C@H]1N.O=C([O-])CC(=O)C(=O)[O-].[Pt+2] (relative stereo) [Example 2, oxaloacetato trans(-)-1,2-diaminocyclohexane platinum(II)] | 7.5 | 243 | 214% and 217% | 30 mg/kg/inj and 40 mg/kg/inj | 30 | 0 | 12 | 156 | 24 | 194 | 2 | 150 | 10 | 143 |  | 4/6 | 0/5 | 0/5 | Incidence of BUN > 30 mg % (BDF1 mice [1]; 45 mg/kg ip): 0/4; Deaths D.14 (BDF1 mice [3]; 45 mg/kg ip): 1/5; Emesis Episodes (ferret; 16 mg/kg iv): 3; Emesis onset in responding animals (ferret; 16 mg/kg iv): 41 min; No. With Emesis/No. tested (ferret; 16 mg/kg iv): 1/1
5 | CCC(=O)C(=O)[O-].CCC(=O)C(=O)[O-].N[C@@H]1CCCC[C@H]1N.[Pt+2] (relative stereo) [Example 5, bis(2-ketobutyrato)trans(-)-1,2-diaminocyclohexane platinum(II)] | 2.5 | 193 | 186% and 200% | 10 mg/kg/inj and 9 mg/kg/inj | 10 | 0 | 6 | 131 | 9 | 144 | 4 | 163 |  |  | 30 | 2/6 | 1/9 | 3/10 | Incidence of BUN > 30 mg % (BDF1 mice [1]; 17 mg/kg ip): 0/10; Incidence of BUN > 30 mg % (BDF1 mice [1]; 22.5 mg/kg ip): 0/10; Deaths D.14 (BDF1 mice [3]; 17 mg/kg ip): 1/10; Deaths D.14 (BDF1 mice [3]; 22.5 mg/kg ip): 1/10
